In article PMC4247201 (Cancer research, 2014):
Read-outs that look alike come from different tables or passages of the source.

Experiments:
HCT-116 (p53−/−) = assay: WST cell growth inhibition, HCT-116; assay type: cell-based
SJSA-1 = assay: WST cell growth inhibition, SJSA-1; assay type: cell-based
LANCaP = assay: WST cell growth inhibition, LANCaP; assay type: cell-based
[1] = tested on: SJSA-1 osteosarcoma cell line; assay: qRT-PCR of p53 target gene mRNA in SJSA-1 cells; assay type: cell-based; details: for effect on mRNA levels of Bax and Noxa: qRT-PCR
HCT-116 = assay: WST cell growth inhibition, HCT-116; assay type: cell-based
RS4;11 = assay: WST cell growth inhibition, RS4; assay type: cell-based
[2] = tested on: HCT-116 colon cancer cell line; assay: flow cytometry cell cycle and apoptosis, HCT-116; assay type: cell-based
[3] = tested on: cancer cell lines with a mutated or deleted p53; assay: cell growth inhibition, mutated or deleted p53 lines; assay type: cell-based; details: read-out: IC50 of cell growth inhibition
RS4;11 xenograft tumors = assay: RS4; assay type: in vivo, SCID mice; details: RS4;11 model
SW620 = assay: WST cell growth inhibition, SW620; assay type: cell-based; details: Homo sapiens, SW-620, read-out: Cell growth Inhibition (IC50, μM)
HCT-116 xenograft tumors = assay: HCT-116 colon cancer xenograft efficacy; assay type: in vivo, SCID mice; details: HCT-116 model
human MDM2 protein = human MDM2 protein (Homo sapiens, UniProt Q00987); assay: fluorescence-polarization competitive binding assay, MDM2 1–118
[4] = tested on: HCT-116 xenograft tumor tissue; assay: pharmacodynamics, qRT-PCR in HCT-116 tumor tissue; assay type: in vivo, mice; details: single oral dose, even at 200 mg/kg
[5] = oral pharmacokinetics in mice; assay type: in vivo
Bcl-xL = assay: binding to Bcl-xL; details: at 10 μM
PC-3 = assay: WST cell growth inhibition, PC-3; assay type: cell-based; details: Homo sapiens, PC-3, read-out: Cell growth Inhibition (IC50, μM)
[6] = tested on: HCT-116 colon cancer cell line; assay: qRT-PCR of p53 target gene mRNA in HCT-116 cells; assay type: cell-based
[7] = tolerability in efficacy experiments; details: mice, all dose-scheduled tests of the efficacy experiments
β-catenin = assay: binding to β-catenin; details: at 10 μM
[8] = oral pharmacokinetics in dogs; assay type: in vivo
[9] = tested on: wild-type p53 cancer cell lines of diverse tumor types; assay: cell growth inhibition, wild-type p53 lines; assay type: cell-based
SJSA-1 xenograft tumors = assay: SJSA-1 osteosarcoma xenograft efficacy; assay type: in vivo, SCID mice; details: SJSA-1 model
[10] = tested on: LNCaP prostate cancer cell line; assay: flow cytometry cell cycle and apoptosis, LNCaP; assay type: cell-based
MDMx = assay: Biolayer Interferometry binding to MDMx; details: at 10 μM
MDM2 25–118 protein = MDM2 25–118 protein (Homo sapiens, UniProt Q00987); assay: FP binding assay, truncated MDM2 25–118; details: MDM2 25–118 vs 1–118
[11] = tested on: SJSA-1 cells with p53 knock-down; assay type: cell-based
[12] = mouse, in vivo
MDM2 18–118 protein = MDM2 18–118 protein (Homo sapiens, UniProt Q00987); assay: FP binding assay, truncated MDM2 18–118; details: MDM2 18–118 vs 1–118
[13] = tested on: SJSA-1, HCT-116, RS4;11 and LNCaP cell lines; assay: Western blotting of p53 activation in four cell lines; assay type: cell-based
SJSA-1 tumor tissue = assay: pharmacodynamics, qRT-PCR in SJSA-1 tumor tissue; assay type: in vivo, mice; details: single oral dose
SAOS-2 = assay: WST cell growth inhibition, SAOS-2; assay type: cell-based; details: Homo sapiens, SAOS-2, read-out: Cell growth Inhibition (IC50, μM)
Bcl-2 = assay: binding to Bcl-2; details: at 10 μM
LNCaP xenograft tumors = assay: LNCaP prostate cancer xenograft efficacy; assay type: in vivo, SCID mice; details: LNCaP model
[14] = oral pharmacokinetics in rats; assay type: in vivo
Mcl-1 = assay: binding to Mcl-1; details: at 10 μM
[15] = stability in cell culture media and two other solutions; assay type: physicochemical; details: cell culture media and two other solutions in which some spiro-oxindoles isomerize
[16] = read-out: Cell growth Inhibition (IC50), SJSA-1, p53 Wild Type
[17] = read-out: Cell growth Inhibition (IC50), LANCaP, p53 Wild Type
[18] = read-out: Cell growth Inhibition (IC50), HCT-116, p53 Wild Type
[19] = read-out: Cell growth Inhibition (IC50), RS4;11, p53 Wild Type
[20] = Homo sapiens, HCT-116, read-out: Cell growth Inhibition (IC50, μM)

Structure (SMILES): CC(C)(C)C[C@H]1N[C@@H](C(=O)NCC[C@H](O)CO)[C@H](c2cccc(Cl)c2)[C@@]12C(=O)Nc1cc(Cl)c(F)cc12.Cl [MI-219]
- IC50 (HCT-116 (p53−/−); read-out: Cell growth Inhibition (IC50), HCT-116 (p53−/−), p53 Deletion): > 10 µM
- IC50 (SJSA-1; [16]): 1.4 ± 0.2 µM
- IC50 (LANCaP; [17]): 1.1 ± 0.1 µM
- effect on mRNA levels of Bax and Noxa ([1]; SJSA-1 cells): no significant effect
- IC50 (HCT-116; [18]): 0.95 ± 0.05 µM
- IC50 (RS4;11; [19]): 1 ± 0.2 µM

Structure (SMILES): COc1ccc(C2=N[C@@H](c3ccc(Cl)cc3)[C@@H](c3ccc(Cl)cc3)N2C(=O)N2CCNC(=O)C2)c(OC(C)C)c1 [Nutlin-3a]
- IC50 (SJSA-1; [16]): 1.3 ± 0.2 µM
- IC50 (LANCaP; [17]): 1.2 ± 0.4 µM
- effect on mRNA levels of Bax and Noxa ([1]; SJSA-1 cells): no significant effect
- IC50 (HCT-116; [18]): 0.86 ± 0.11 µM
- IC50 (RS4;11; [19]): 0.57 ± 0.13 µM

Structure (SMILES): CC(C)(C)C[C@@H]1N[C@@H](C(=O)N[C@H]2CC[C@H](O)CC2)[C@H](c2cccc(Cl)c2F)[C@]12C(=O)Nc1cc(Cl)ccc12 [SAR405838]
- concentration that effectively inhibits cell cycle progression ([2]; HCT-116, 24 h treatment): ≥ 0.3 µM
- apoptosis induction ([2]; HCT-116, even at 10 μM): modest or minimal effect
- IC50 [3]: ≥ 10 µM
- antitumor activity (RS4;11 xenograft tumors; 50 mg/kg daily dosing): partial tumor regression
- antitumor activity (RS4;11 xenograft tumors; 100 mg/kg daily dosing): complete tumor regression
- antitumor activity (RS4;11 xenograft tumors; 200 mg/kg daily dosing): complete tumor regression
- tumor free mice (RS4;11 xenograft tumors; 200 mg/kg, day 71, 25 days after the last dose, of 8 mice): 8 mice
- IC50 (SW620): > 10 µM
- tumor growth inhibition over the vehicle control (HCT-116 xenograft tumors; 100 mg/kg daily dosing, end of the treatment): > 80%
- antitumor activity (HCT-116 xenograft tumors; 200 mg/kg daily dosing): completely inhibits tumor growth
- times more potent than MI-219 in MDM2 binding (human MDM2 protein; comparator MI-219): > 10 times
- times more potent than nutlin-3a in MDM2 binding (human MDM2 protein; comparator nutlin-3a): > 50 times
- times more potent than the p53 peptide in MDM2 binding (human MDM2 protein; comparator p53 peptide): > 1,000 times
- maximum induction of PUMA mRNA over the control [4]: 3 fold
- oral pharmacokinetics (PK) [5]: good
- binding to Bcl-xL (Bcl-xL): no appreciable binding
- IC50 (PC-3): > 10 µM
- effect on p53 mRNA ([6]; HCT-116 cells): no increase
- times more potent than MI-219 and nutlin-3a in induction of p21 and MDM2 transcription ([6]; HCT-116 cells): 5–10 times
- increase of PUMA mRNA ([6]; HCT-116 cells, at 1 and 3 μM): ~ 3 fold
- EC50 ([6]; Homo sapiens, HCT-116, read-out: EC50 of increase of MDM2 and p21 mRNA): 700 nM
- weight loss [7]: less than 10%
- IC50 (HCT-116 (p53−/−); [20]): > 20 µM
- binding to β-catenin (β-catenin): no appreciable binding
- oral pharmacokinetics (PK) [8]: good
- times more potent than MI-219 and nutlin-3a in inhibition of cell growth [9]: 5–10 times
- antitumor activity (SJSA-1 xenograft tumors; 10 mg/kg daily oral for 2 weeks): no significant activity
- antitumor activity (SJSA-1 xenograft tumors; 30 mg/kg daily oral for 2 weeks): partial tumor regression
- antitumor activity (SJSA-1 xenograft tumors; 100 mg/kg daily oral for 2 weeks): rapid, complete and persistent tumor regression
- shrinkage of average tumor volume (SJSA-1 xenograft tumors; 100 mg/kg daily oral, after four doses): > 90%
- tumor free mice (SJSA-1 xenograft tumors; 100 mg/kg daily, day 55, 31 days after the last dose, of 8 mice): 8 mice
- tumor free animals (SJSA-1 xenograft tumors; 100 mg/kg daily, day 73, 2 months after the last dose, 5 out of 8): 63%
- antitumor activity (SJSA-1 xenograft tumors; single 100 mg/kg oral dose): effectively inhibits tumor growth
- mice with complete tumor regression (SJSA-1 xenograft tumors; single oral dose of 200 mg/kg): 100%
- IC50 (SJSA-1; Homo sapiens, SJSA-1, read-out: Cell growth Inhibition (IC50, μM)): 0.092 ± 0.019 µM
- concentration that effectively inhibits cell cycle progression ([10]; 24 h treatment): ≥ 0.3 µM
- apoptosis induction ([10]; even at 10 μM): modest or minimal effect
- binding to MDMx (MDMx): no appreciable binding
- times weaker than with the MDM2 1–118 protein (MDM2 25–118 protein): 25 times
- reduction of potency in cell growth inhibition by p53 knock-down [11]: > 20 times
- signs of toxicity [12]: no signs of toxicity
- times weaker than with the MDM2 1–118 protein (MDM2 18–118 protein): 10 times
- times more potent than MI-219 in activation of p53 [13]: > 10 times
- increase of PUMA mRNA (SJSA-1 tumor tissue): > 40 fold
- IC50 (SAOS-2): > 10 µM
- IC50 (LANCaP; read-out: Cell growth Inhibition (IC50, μM)): 0.27 ± 0.03 µM
- EC50 ([1]; Homo sapiens, SJSA-1, read-out: EC50 of up-regulation of MDM2, p21 and PUMA mRNA): 300 to 600 nM
- effect on p53 mRNA ([1]; SJSA-1 cells): no effect
- times more potent than MI-219 and nutlin-3a in induction of p21 and MDM2 transcription ([1]; SJSA-1 cells): 5–10 times
- induction of PUMA mRNA ([1]; SJSA-1 cells, at 1 μM): 19 fold
- effect on mRNA levels of Bax and Noxa ([1]; SJSA-1 cells): no significant effect
- IC50 (HCT-116; [20]): 0.2 ± 0.04 µM
- binding to Bcl-2 (Bcl-2): no appreciable binding
- tumor growth inhibition over the vehicle control (LNCaP xenograft tumors; 50 mg/kg daily for 4 weeks): 70%
- antitumor activity (LNCaP xenograft tumors; 100 mg/kg daily for 4 weeks): completely inhibits tumor growth
- tumor regression (LNCaP xenograft tumors; 200 mg/kg daily for 4 weeks): 80%
- oral pharmacokinetics (PK) [14]: good
- binding to Mcl-1 (Mcl-1): no appreciable binding
- IC50 (RS4;11; Homo sapiens, RS4-11, read-out: Cell growth Inhibition (IC50, μM)): 0.089 ± 0.027 µM
- stability in solution [15]: stable
